Reference: patent US20070161691A1, “Modified-protein formation inhibitor” (TOKAI UNIVERSITY, priority 2003, published 2007)

Assays:
pentosidine formation = test: AGEs (pentosidine) formation inhibiting effect in plasma from dialysis patients; assay type: biochemical, human
Description: Before dialysis, blood samples were obtained from non-diabetic volunteer dialysis patients with renal failure, and fresh heparinized plasma samples were prepared therefrom Pooled plasma obtained from several patients (n=3˜5) was served to the test. 4-(5-phenyltetrazol-1-ylmethyl)-morpholine (Compound 1), 5-methyl-1-(5-phenyltetrazol-1-ylmethyl)-3a,6a-dihydro-1H-pyrrolo[3,4-d][1,2,3]triazole-4,6-dione (Compound 2) or (5-phenyltetrazol-1-yl)methanol (Compound 3) adjusted to a designed concentration ([…]), in DMSO solution (100 μl), was added to the pooled plasma (900 μl) and incubated at 37° C. for 7 days in the presence of air. Then, the amount of pentosidine was measured to estimate the suppressive effect on the glycation of protein.
Measurement of the amount of pentosidine was made as follows: to each incubated sample (50 μL) was added an equal volume of 10% trichloroacetic acid, followed by centrifugation at 5000 g for 5 minutes; after removal of the supernatant, the pellet was washed by 5% trichloroacetic acid (300 μL); the pellet was dried under reduced pressure and then subjected to hydrolysis in 6N HCI solution (100 μL) at 110° C. under nitrogen atmosphere for 16 hours; to the hydrolysate, 5N NaOH (100 μL) and 0.5 M phosphate buffer (pH 7.4) (200 μL) were added, followed by filtration through a porefilter with a pore size of 0.5 μm and dilution with PBS. The concentration of free pentosidine was determined by reversed-phase HPLC using a fluorescence detector (RF-10A, Shimazu Seisakusho) (Miyata, T. et al.: Proc. Natl. Acad. Sci. USA, 93, 2353-2358, 1996). The effluent was monitored at 335/385 nm of excitation/emission wavelength. Synthetic pentosidine was used as the standard. The detection limit of pentosidine was 0.1 pmol/mg protein.
The inhibiting effect was estimated by comparing with positive control (aminoguanidine and pyridoxamine (Sigma)) reacted in the same manner as 4-(5-phenyltetrazol-1-yl-methyl)-morpholine (Compound 1), 5-methyl-1-(5-phenyltetrazol-1-ylmethyl)-3a,6a-dihydro-1H-pyrrolo[3,4-d][1,2,3]triazole-4,6-dione (Compound 2) and (5-phenyltetrazol-1-yl)methanol (Compound 3).

[1] = Acute toxicity examination, single oral administration to mouse; conditions: male, in vivo, ICR mice, single oral administration
Description: (§1) For 4-(5-phenyltetrazol-1-ylmethyl)-morpholine (compound 1) and (5-phenyltetrazol-1-yl) methanol (compound 3), acute toxicity test was carried out using mice. Each compounds were suspended in carboxymethyl cellulose in given concentration to prepare sample for oral administration. Then single oral administration was done to mouse. The dose is 100, 250, 500, 1000 and 2000 mg/kg. Five ICR mice (male , 8 weeks aged, closed colony) were used in each group. The test material was administrated to determine LD50 value.

ICR mice = test: as above; conditions: in vivo, po
Description: as §1

[2] = system: ischemia-reperfusion acute renal failure model; test: Renal protective effect on ischemia-reperfusion acute renal failure model rat; assay type: in vivo; conditions: 1 mg/kg once a day, 2 days
Description: This condition model is typical acute renal failure model. To prepare the model, operated on wistar rat (male, body weight 150 g, 6 weeks aged) to remove right kidney, and on the following day, renal artery of remaining left kidney was applied a ligature with clip under general anesthesia. […] After preparing the ischemia-reperfusion model, test compound (4-(5-phenyltetrazol-1-yl methyl)-morpholine (compound 1), 1 mg/kg body weight, once a day) was suspended in 0.5% carboxymethylcellulose. The suspension was coercively administered 2 days continuously, on third day kidney was obtained, and analysed pathologically (renal tubular stromal disorder score). In particular, the kidney was stained by PAS according to conventional method and the renal tubular stromal disorder was estimated for the presence or absence of renal tubular necrosis, renal tubular hypertrophy, renal tubular atrophia, renal tubular basal lamina thickening and cast in the sustained image of kidney. As well as biochemical analysis of blood was carried out (contract clinical analysis organization: SRL).

[3] = system: middle cerebral artery ischemia-reperfusion model; test: Cerebroprotective action in middle cerebral artery ischemia-reperfusion model; assay type: in vivo, rat; conditions: for cerebral infarction nest: dosed 5 minutes and 5 hours after occlusion
Description: CD(SD)IGS male rats (Japan Charles River Kabushiki […], Hino farm, room No. 22, specific product) (8 rats per one group) having body weight 270 to 350 g were anesthetized by 2% isoflurane (mixed bas comprising of 70% N2O (laughter gas) and 30% O2) to immobilize, and then the rats were put on warming plate to keep the rectal and brain temperature 37 to 38° C. After that, to observe the stability in the examination, canula which was made by polyethylene (PE-50, Becton Dickinson) was inserted and left in caudal artery of said animal, and this made blood drawing and blood pressure determining to monitor the biochemical parameter such as blood sugar level, hematocrit, CO2 concentration, oxygen partial pressure, pH, blood pressure and etc. In addition, cerebral blood flow in cortex was determined by laser doppler […] (Neuroscience.inc: OMEGA FLOW (FLO-C1)), putting the detection site directly on cranium on the point left 4 mm from bregma. Left neck of such animal was incised, and from internal and external carotid fork of common carotid artery to upstream of internal carotid, nylon surgical thread (length 16 mm, diameter 0.2 to 0.3 mm, with silicon coating on its tip 3 mm) was passed and left, middle cerebral artery was obstructed for 2 hours. After that, the thread was removed to release the middle cerebral artery, and blood was reperfused for 21 hours. To each animals, 3.0 mg/kg of 3-methyl-1-phenyl 2-pyrazolin-5-one (control, hereinafter referring to edaravone) and 4.23 mg/kg of 4-(5-phenyltetrazol-1-ylmethyl)-morpholine (compound 1) (test compound, hereinafter referring to TM-3001) were respectively administered twice by cannula which is left in caudal artery 5 minutes and 5 hours after middle cerebral artery occlusion. After said operation, the brain was removed from said animal, and after preparing 7 brain slices with 2 mm thickness, to TTC stain (0.8 g of 2,3,5-triphenyltetrazolium chloride (Sigma) dissolved in 40 ml of saline) were soaked at 37° C. for 15 minutes to stain, and fixed by 10% neutral formalin liquid to prepare specimen. Such specimens were created the image by CCD camera respectively, and analysed according to method of Swanson et al. (J Cereb Blood Flow Metab 10:290-293; […]). […] Furthermore, function recovering was estimated before and after the operation by rotor rod test that estimates how much they can walk on rotating rotor.

[4] = system: middle cerebral artery ischemia-reperfusion model; test: as above; assay type: in vivo, rat; conditions: after reperfusion 22 hrs
[5] = comparing to diluent single administration

## c1ccc(-c2nnnn2CN2CCOCC2)cc1 [Compound 1, 4-(5-phenyltetrazol-1-ylmethyl)-morpholine]
Pentosidine formation; 5 mM, plasma from dialysis patients, 37° C., 7 days, DMSO negative control 2.960
  Pentosidine formation: 0.367 nmol/mL
Pentosidine formation; plasma from the patients with dialysis
  pentosidine formation suppression: suppressed remarkably
[1]
  LD50: > 1000 mg/kg
ICR mice
  toxicity: lower toxicity
[2]
  BUN: BUN reducing effect
[3]; after occlusion 10 min
  Nervous condition estimation test, Ave (Bederson grade): 2.4
[3]; after occlusion 2 hrs
  Nervous condition estimation test, Ave (Bederson grade): 2.9
[3]; after reperfusion 10 min
  Nervous condition estimation test, Ave (Bederson grade): 2.6
[3]; after reperfusion 3 hrs
  Nervous condition estimation test, Ave (Bederson grade): 2.4
[3]; after reperfusion 4 hrs
  Nervous condition estimation test, Ave (Bederson grade): 2.5
[3]; before occlusion
  rotor rod test, Ave (count from rotor rod machine): 300.0
[3]; [5]
  improvement for nervous condition: remarkably shown
  recovering the function, rotor rod test: remarkably shown
  cerebral infarction nest: reduction of the cerebral infarction nest
[3]; comparing to diluent single administration, listed as TM-3001
  cerebral infarction nest: significantly reduced
[3]; reperfusion
  rotor rod test, Ave (count from rotor rod machine): 64.8
[3]; reperfusion vs before occlusion
  rotor rod test, ratio to before occlusion (%), Ave: 21.6%
[4]
  Nervous condition estimation test, Ave (Bederson grade): 1.8
